Values after ≈ are worked out from the molar mass of the structure shown.
Key:
[1] = Lipophilicity, log P of the compound; type: physicochemical; conditions: octanol/water
[2] = Solubility of the compound; type: physicochemical
[3] = target: T1, Fructose-bisphosphate aldolase class 2 (Synechocystis sp. (strain PCC 6803 / Kazusa), UniProt Q55664); assay: (§1) Inhibition of recombinant Synechocystis sp. PCC 6803 FBA2 expressed in Escherichia coli BL21 (DE3) using FBP as substrate measured over 5 mins
T1 sequence (Q55664 whole entry): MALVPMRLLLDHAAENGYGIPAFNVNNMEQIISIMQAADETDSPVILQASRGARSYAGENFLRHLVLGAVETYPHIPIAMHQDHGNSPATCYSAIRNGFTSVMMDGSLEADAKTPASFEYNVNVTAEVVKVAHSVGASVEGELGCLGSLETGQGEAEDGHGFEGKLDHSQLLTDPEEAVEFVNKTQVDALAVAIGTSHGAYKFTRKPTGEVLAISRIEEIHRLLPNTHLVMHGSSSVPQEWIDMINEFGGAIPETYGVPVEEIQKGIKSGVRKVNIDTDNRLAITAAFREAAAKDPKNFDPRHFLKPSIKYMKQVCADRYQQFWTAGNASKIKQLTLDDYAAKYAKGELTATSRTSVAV

[4] = target: Fructose-bisphosphate aldolase class 2 (Synechocystis sp. (strain PCC 6803 / Kazusa), UniProt Q55664, S50A); assay: Inhibition of recombinant Synechocystis sp. PCC 6803 FBA2 S50A mutant expressed in Escherichia coli BL21 (DE3) using FBP as substrate measured over 5 mins
[5] = target: Fructose-bisphosphate aldolase class 2 (Synechocystis sp. (strain PCC 6803 / Kazusa), UniProt Q55664, R51A); assay: Inhibition of recombinant Synechocystis sp. PCC 6803 FBA2 R51A mutant expressed in Escherichia coli BL21 (DE3) using FBP as substrate measured over 5 mins
[6] = target: Fructose-bisphosphate aldolase class 2 (Synechocystis sp. (strain PCC 6803 / Kazusa), UniProt Q55664, S55A); assay: Inhibition of recombinant Synechocystis sp. PCC 6803 FBA2 S55A mutant expressed in Escherichia coli BL21 (DE3) using FBP as substrate measured over 5 mins
[7] = target: Fructose-bisphosphate aldolase class 2 (Synechocystis sp. (strain PCC 6803 / Kazusa), UniProt Q55664, N275A); assay: Inhibition of recombinant Synechocystis sp. PCC 6803 FBA2 N275A mutant expressed in Escherichia coli BL21 (DE3) using FBP as substrate measured over 5 mins
[8] = target: Fructose-bisphosphate aldolase class 2 (Synechocystis sp. (strain PCC 6803 / Kazusa), UniProt Q55664, D277A); assay: Inhibition of recombinant Synechocystis sp. PCC 6803 FBA2 D277A mutant expressed in Escherichia coli BL21 (DE3) using FBP as substrate measured over 5 mins
[9] = target: Fructose-bisphosphate aldolase class 2 (Synechocystis sp. (strain PCC 6803 / Kazusa), UniProt Q55664, T278A); assay: Inhibition of recombinant Synechocystis sp. PCC 6803 FBA2 T278A mutant expressed in Escherichia coli BL21 (DE3) using FBP as substrate measured over 5 mins
[10] = target: Fructose-bisphosphate aldolase class 2 (Synechocystis sp. (strain PCC 6803 / Kazusa), UniProt Q55664, R281A); assay: Inhibition of recombinant Synechocystis sp. PCC 6803 FBA2 R281A mutant expressed in Escherichia coli BL21 (DE3) using FBP as substrate measured over 5 mins
[11] = target: Fructose-bisphosphate aldolase class 2 (Synechocystis sp. (strain PCC 6803 / Kazusa), UniProt Q55664, R302A); assay: Inhibition of recombinant Synechocystis sp. PCC 6803 FBA2 R302A mutant expressed in Escherichia coli BL21 (DE3) using FBP as substrate measured over 5 mins
[12] = test system: Synechocystis sp. PCC 6803; assay: Selectivity ratio of Ki for recombinant Synechocystis sp. PCC 6803 FBA2 S50A mutant expressed in Escherichia coli BL21 (DE3) to Ki for recombinant Synechocystis sp. PCC 6803 FBA2 expressed in Escherichia coli BL21 (DE3)
[13] = test system: Synechocystis sp. PCC 6803; assay: Selectivity ratio of Ki for recombinant Synechocystis sp. PCC 6803 FBA2 R51A mutant expressed in Escherichia coli BL21 (DE3) to Ki for recombinant Synechocystis sp. PCC 6803 FBA2 expressed in Escherichia coli BL21 (DE3)
[14] = test system: Synechocystis sp. PCC 6803; assay: Selectivity ratio of Ki for recombinant Synechocystis sp. PCC 6803 FBA2 S55A mutant expressed in Escherichia coli BL21 (DE3) to Ki for recombinant Synechocystis sp. PCC 6803 FBA2 expressed in Escherichia coli BL21 (DE3)
[15] = test system: Synechocystis sp. PCC 6803; assay: Selectivity ratio of Ki for recombinant Synechocystis sp. PCC 6803 FBA2 N275A mutant expressed in Escherichia coli BL21 (DE3) to Ki for recombinant Synechocystis sp. PCC 6803 FBA2 expressed in Escherichia coli BL21 (DE3)
[16] = test system: Synechocystis sp. PCC 6803; assay: Selectivity ratio of Ki for recombinant Synechocystis sp. PCC 6803 FBA2 D277A mutant expressed in Escherichia coli BL21 (DE3) to Ki for recombinant Synechocystis sp. PCC 6803 FBA2 expressed in Escherichia coli BL21 (DE3)
[17] = test system: Synechocystis sp. PCC 6803; assay: Selectivity ratio of Ki for recombinant Synechocystis sp. PCC 6803 FBA2 T278A mutant expressed in Escherichia coli BL21 (DE3) to Ki for recombinant Synechocystis sp. PCC 6803 FBA2 expressed in Escherichia coli BL21 (DE3)
[18] = test system: Synechocystis sp. PCC 6803; assay: Selectivity ratio of Ki for recombinant Synechocystis sp. PCC 6803 FBA2 R281A mutant expressed in Escherichia coli BL21 (DE3) to Ki for recombinant Synechocystis sp. PCC 6803 FBA2 expressed in Escherichia coli BL21 (DE3)
[19] = test system: Synechocystis sp. PCC 6803; assay: Selectivity ratio of Ki for recombinant Synechocystis sp. PCC 6803 FBA2 R302A mutant expressed in Escherichia coli BL21 (DE3) to Ki for recombinant Synechocystis sp. PCC 6803 FBA2 expressed in Escherichia coli BL21 (DE3)
[20] = test system: Synechocystis sp. PCC 6803; assay: Algicidal activity against wild-type Synechocystis sp. PCC 6803 after 24 hrs by microbroth dilution method; type: functional, organism-based
[21] = target: T2, Fructose-bisphosphate aldolase class 2 (Synechocystis sp. (strain PCC 6803 / Kazusa)) (UniProt Q55664); assay: as §1; parameters: concentration or dose not given beside the values
T2 sequence (whole entry): T1 sequence (Q55664 whole entry)

[22] = test system: Synechocystis sp. PCC 6803; assay: Algicidal activity against FBA2 over-expressing Synechocystis sp. PCC 6803 after 24 hrs by microbroth dilution method; type: functional, organism-based; conditions: Synechocystis sp. PCC 6803, 24 h
[23] = test system: Synechocystis sp. PCC 6803; assay: Selectivity ratio of EC50 for FBA2 over-expressing Synechocystis sp. PCC 6803 to EC50 for wild-type Synechocystis sp. PCC 6803; type: functional
[24] = Synechocystis sp. PCC 6803, 24 h, read-out: EC50

Chain of Fructose-bisphosphate aldolase class 2 (Synechocystis sp. (strain PCC 6803 / Kazusa), UniProt Q55664, D277A) (Q55664 2-359 D277A limits assumed): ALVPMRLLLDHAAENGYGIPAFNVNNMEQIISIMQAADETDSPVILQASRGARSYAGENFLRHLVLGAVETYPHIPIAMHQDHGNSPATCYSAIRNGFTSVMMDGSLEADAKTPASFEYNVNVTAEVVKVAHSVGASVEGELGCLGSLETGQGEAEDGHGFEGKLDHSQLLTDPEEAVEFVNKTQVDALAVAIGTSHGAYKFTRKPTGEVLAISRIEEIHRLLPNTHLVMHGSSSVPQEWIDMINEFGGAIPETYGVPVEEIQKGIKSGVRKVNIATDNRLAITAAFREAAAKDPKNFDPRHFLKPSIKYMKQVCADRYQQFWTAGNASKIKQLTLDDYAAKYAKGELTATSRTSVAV
Chain of Fructose-bisphosphate aldolase class 2 (Synechocystis sp. (strain PCC 6803 / Kazusa), UniProt Q55664, R281A) (Q55664 2-359 R281A limits assumed): as the sequence (Q55664 2-359 D277A limits assumed) above, with A276D, R280A counted along it
Chain of Fructose-bisphosphate aldolase class 2 (Synechocystis sp. (strain PCC 6803 / Kazusa), UniProt Q55664, S55A) (Q55664 2-359 S55A limits assumed): as the sequence (Q55664 2-359 D277A limits assumed) above, with S54A, A276D counted along it
Chain of Fructose-bisphosphate aldolase class 2 (Synechocystis sp. (strain PCC 6803 / Kazusa), UniProt Q55664, T278A) (Q55664 2-359 T278A limits assumed): as the sequence (Q55664 2-359 D277A limits assumed) above, with A276D, T277A counted along it
Chain of Fructose-bisphosphate aldolase class 2 (Synechocystis sp. (strain PCC 6803 / Kazusa), UniProt Q55664, S50A) (Q55664 2-359 S50A limits assumed): as the sequence (Q55664 2-359 D277A limits assumed) above, with S49A, A276D counted along it
Chain of Fructose-bisphosphate aldolase class 2 (Synechocystis sp. (strain PCC 6803 / Kazusa), UniProt Q55664, R302A) (Q55664 2-359 R302A limits assumed): as the sequence (Q55664 2-359 D277A limits assumed) above, with A276D, R301A counted along it
Chain of Fructose-bisphosphate aldolase class 2 (Synechocystis sp. (strain PCC 6803 / Kazusa), UniProt Q55664, N275A) (Q55664 2-359 N275A limits assumed): as the sequence (Q55664 2-359 D277A limits assumed) above, with N274A, A276D counted along it
Chain of Fructose-bisphosphate aldolase class 2 (Synechocystis sp. (strain PCC 6803 / Kazusa), UniProt Q55664, R51A) (Q55664 2-359 R51A limits assumed): as the sequence (Q55664 2-359 D277A limits assumed) above, with R50A, A276D counted along it

## N[C@@H](Cc1ccc(O)cc1-c1ccccc1)c1ccccc1O
[1]
  logP: 3.23
[2]
  solubility: 6350 µg/mL (≈ 20800 µM)

## O=C(NC(=S)Nc1ccc([N+](=O)[O-])cc1O)c1ccc([N+](=O)[O-])cc1
[3]
  Ki: 1.9 µM
[4]
  Ki: 3.9 µM
[5]
  Ki: 3.3 µM
[6]
  Ki: 3.4 µM
[7]
  Ki: 37.9 µM
[8]
  Ki: 4.6 µM
[9]
  Ki: 87.5 µM
[10]
  Ki: 144 µM
[11]
  Ki: 24.4 µM
[12]
  Ratio Ki: 2.1
[13]
  Ratio Ki: 1.7
[14]
  Ratio Ki: 2.1
[15]
  Ratio Ki: 20
[16]
  Ratio Ki: 2.4
[17]
  Ratio Ki: 46.3
[18]
  Ratio Ki: 76
[19]
  Ratio Ki: 12.9

## Oc1cccc(COC2CC[C@@H](O)C(Cc3ccccc3)O2)c1 (stereo not given in full)
[1]
  logP: 3.32
[2]
  solubility: 200 µg/mL (≈ 636 µM)

## O=C(NC(=S)Nc1ccc([N+](=O)[O-])cc1O)c1ccc(C(F)(F)F)cc1
[3]
  Ki: 5.5 µM

## Cc1ccc(C(=O)NC(=S)Nc2ccc([N+](=O)[O-])cc2O)cc1
[3]
  Ki: 5.5 µM

## O=C(NNC(=S)NC(=O)c1ccccc1)c1ccc(Br)cc1
[3]
  Ki: 5.2 µM
[20]
  EC50: 1.58 ppm

## O=C(NC(=S)Nc1cc([N+](=O)[O-])ccc1O)c1ccccc1
[3]
  Ki: 9.1 µM

## O=C(NNC(=S)NC(=O)c1ccccc1)c1ccc([N+](=O)[O-])cc1
[3]
  Ki: 2.8 µM
[20]; [24]
  EC50: 2.7 µM

## O=C(NC(=S)Nc1ccc([N+](=O)[O-])cc1O)c1ccc(-c2ccccc2)cc1
[3]
  Ki: 2.5 µM

## O=C(NNC(=S)NC(=O)c1ccccc1)c1cccc(Br)c1
[3]
  Ki: 3.1 µM
[20]
  EC50: 5.9 ppm

## O=C(NC(=S)Nc1cc([N+](=O)[O-])ccc1O)c1ccc(Cl)cc1
[3]
  Ki: 9.1 µM

## O[C@H]1CO[C@@H](O)C(c2nc3ncncc3n2-c2ccccc2)C1 (stereo not given in full)
[1]
  logP: 0.82
[2]
  solubility: 440 µg/mL (≈ 1410 µM)

## O=CNC(=S)Nc1cc(-c2ccccc2)c([N+](=O)[O-])cc1O
[1]
  logP: 2.45
[2]
  solubility: 160 µg/mL (≈ 504 µM)

## O=C(O)c1cccc([C@@H]2CCC[C@@H]2c2ncc3nc[nH]c3n2)c1
[1]
  logP: 2.96
[2]
  solubility: 13100 µg/mL (≈ 42600 µM)

## O=C(NNC(=S)NC(=O)c1ccccc1)c1ccc(F)cc1
[3]
  Ki: 3.5 µM
[20]
  EC50: 8.2 ppm

## O=C(NC(=S)Nc1ccc(Br)cc1)c1ccccc1
[21]
  inhibition: 42%

## O[C@@H]1CC[C@@](O)(n2c(-c3ccccc3)nc3ncncc32)OC1
[1]
  logP: 0.94
[2]
  solubility: 730 µg/mL (≈ 2340 µM)

## O=CNC(=S)Nc1c(O)cc([N+](=O)[O-])cc1-c1ccccc1
[1]
  logP: 2.48
[2]
  solubility: 160 µg/mL (≈ 504 µM)

## O=C(NNC(=S)NC(=O)c1ccccc1)c1cccc([N+](=O)[O-])c1
[3]
  Ki: 1.87 µM
[20]
  EC50: 0.39 ppm

## O=C(NC(=S)NNC(=O)c1ccc(O)cc1O)c1ccccc1
[3]
  Ki: 1.25 µM
[20]; [24]
  EC50: 1.25 µM

## O=C(NC(=S)NNC(=O)c1ccccc1O)c1ccccc1
[3]
  Ki: 0.65 to 0.7 µM
[4]
  Ki: 15.2 µM
[5]
  Ki: 3.9 µM
[6]
  Ki: 1 µM
[7]
  Ki: 15.9 µM
[8]
  Ki: 7.2 µM
[9]
  Ki: 4.3 µM
[10]
  Ki: 52.3 µM
[11]
  Ki: 20.4 µM
[12]
  Ratio Ki: 23.4
[13]
  Ratio Ki: 6
[14]
  Ratio Ki: 1.5
[15]
  Ratio Ki: 24.5
[16]
  Ratio Ki: 11
[17]
  Ratio Ki: 6.6
[18]
  Ratio Ki: 80.5
[19]
  Ratio Ki: 31
[22]
  EC50: 4.98 µM
[20]; [24]
  EC50: 0.28 µM
[23]
  Ratio EC50: 18

## O=C(NC(=S)Nc1ccc([N+](=O)[O-])cc1)c1ccccc1
[21]
  inhibition: 60%

## CCNCCc1ccccc1-c1ccccc1
[1]
  logP: 4
[2]
  solubility: 8350 µg/mL (≈ 37100 µM)

## O=C(NC(=S)Nc1ccc(O)cc1)c1ccccc1
[21]
  inhibition: 22%

## O=C(NC(=S)NNC(=O)c1ccccc1O)c1ccc(Cl)cc1
[3]
  Ki: 0.63 µM
[20]
  EC50: 0.98 ppm

## O=C(NC(=S)NNC(=O)c1ccccc1O)c1ccc(F)cc1
[3]
  Ki: 0.88 µM
[20]; [24]
  EC50: 0.88 µM

## O=C(NC(=S)Nc1ccccc1[N+](=O)[O-])c1ccccc1
[21]
  inhibition: 15%

## O=C(NC(=S)Nc1ccc([N+](=O)[O-])cc1O)c1ccccc1
[1]
  logP: 2.6
[2]
  solubility: 180 µg/mL (≈ 567 µM)
[3]
  Ki: 16.7 µM

## O=C(NC(=S)Nc1ccccc1O)c1ccccc1
[21]
  inhibition: 37%

## O=C(NC(=S)Nc1ccccc1Cl)c1ccccc1
[21]
  inhibition: 30%

## c1ccc(-n2c(-n3cnc4ncncc43)nc3cncnc32)cc1
[1]
  logP: 0.99
[2]
  solubility: 290 µg/mL (≈ 923 µM)

Reference: ChEMBL document CHEMBL4422665, “Design, synthesis and algicides activities of thiourea derivatives as the novel scaffold aldolase inhibitors” (Bioorg Med Chem, 2019)
